Values after ≈ are worked out from the molar mass of the structure shown. Read-outs that look alike come from different tables or passages of the source.
How the values were obtained:
[1] = Measured lipophilicity of tazarotene; format: physicochemical
Solubility of tazarotene = format: physicochemical
Experimental: This was due to the extremely low solubility of Tazarotene in 0.9% saline, which was determined to be less than 1 μg/mL. Therefore, it was difficult to see any differences in the release profiles of different formulations. Work began to search for a release medium that would differentiate the release profiles of all formulations.

[2] = Plasma concentrations after topical and oral dosing of tazarotene; format: in vivo, patients; conditions: for Cmax: human, po, read-out: TAZAROTENE Cmax
Experimental: […] For the most part tazarotene is not observed in the plasma after topical or oral administration. Facile hydrolysis by pre-systemic metabolism rapidly generates the free acid. […] It is important to note that these are plasma concentrations and the eye plasma distribution ratio is 0.02. Over 90% of all patients in the phase 3 clinical trials had concentrations of the parent compound, tazarotene, <1 ng/mL with the highest being 6 ng/mL.
Oral delivery of 1.1 mg and 6 mg multiple doses led to 28.9 ng/mL and 227 ng/ml peak levels with a 2.56 ng/mL trough. This corresponds to a maximum possible 4 ng/mL ocular level for the highest dose. FIG. 11 depicts the tissue distribution of tazarotenic acid. The eyes show a 2% tissue/plasma ration in the rat. It should be noted that tazarotenic acid is 99% protein bound and distribution is limited to unbound drug.

[3] = tested on: PVR induced by human RPE cells; assay: PVR model with retinoid implants, Fastenberg scale; format: in vivo
Description: PLA and PLGA implants 1.5 mm in diameter and 3 mm in length were fabricated by extrusion of the polymer drug blend. Tazarotenic acid (the free acid of Tazarotene) Tazarotene and 13-cis-retinoic acid were loaded into the implants at 10% concentrations. Briefly, pigmented rabbits were vitrectomized followed by intravitreal injection of 500,000 human RPE cells. After injection of the RPE cells the retinoid implants were placed into the vitreous and anchored to the sclera with the suture used to close the sclerotomy.
The eyes were examined weekly for 4 weeks. Severity of PVR was graded based on the Fastenberg scale. At 4 weeks gross pathology and limited histopathology were conducted.

[4] = Intraocular pharmacokinetics after single intravitreal injection of Tazarotene; format: in vivo, female New Zealand White rabbits; conditions: rabbit; for concentration at 2 hr / concentration at 24 hr / half-life: female, New Zealand White; for concentration at 2 hr / concentration at 24 hr: other: intravitreal injection; for concentration at 2 hr: 2 hr post dose; for concentration at 24 hr: 24 hr post dose; for half-life: topical or ocular
Experimental: The intraocular pharmacokinetics of Tazarotene was assessed in female New Zealand White rabbits following a single intravitreal injection. The rabbits were dosed with bilateral intravitreal injections of Tazarotene (1250 ng in 50 μL). At 0.5, 1, 2, 4, 8, 12, and 24 hr post dose, animals were sacrificed and the aqueous humor, vitreous humor, and retina samples were analyzed. […] The Tazarotene concentration in the retina was close to its vitreal concentration at all time points, declining from 859±131 ng/g at 2 hr post dose to 93.1±28.9 ng/g by 24 hr post dose. […] It was shown that Tazarotene has a relatively long intravitreal half-life and that the retinal concentration parallel the vitreous when given as a neat injection. However, despite a very low solubility the clearance of Tazarotene from the retina is fast enough to require sustained release for extended duration of action.

photoreceptors = assay: Rhodopsin mutant transgenic rat models of retinal degeneration; format: in vivo, Transgenic S334ter rats; conditions: i.p., S334ter line 3 and line 4
Experimental: The objective of this study was to determine the efficacy of various retinoids in preventing retinal damage or improving retinal survival in rhodopsin mutant transgenic rat models of retinal degeneration. The overall goal of the research was to investigate potential photoreceptor survival in mutant rhodopsin transgenic rats using RAR α, RAR β γ, and RXR retinoid agonists.
The experimental design was straightforward. A compound was injected daily to line 3 and every two days for line 4 animals (i.p.) for a given period and animals were sacrificed at the end by CO2 overdose followed immediately by vascular perfusion of mixed aldehydes. Two litters of rats were used:
1. Transgenic S334ter-3 rats. Line 3 bears a rhodopsin mutation S334ter. […] Injection of a compound will be given daily from PD 6 (post-delivery day 6) to PD 20.
2. Transgenic S334ter-4 rats. Line 4 bears a rhodopsin mutation S334ter. Animals of this line experience a 80% loss of photoreceptors by 60 days after birth. The ONL is reduced to one row of nuclei. Injection of a compound will be given every other day from PD 25 to PD 60.
For the line 3 animals, treatment started at PD 6 and the endpoint was PD 20. For the line 4, injection began at PD 25 and ended at PD60 when eyes were harvested. Eyes were embedded in an Epon/Araldite mixture for sectioning at 1 μm thickness along the vertical meridian. Protection of photoreceptors was be evaluated by counting the rows of nuclei in the outer nuclear layer.
The outcome was a measure of retinal outer layer thickness, and cytology over an 8 week period. Compounds included the retinoid agonists tazarotene (RAR β γ), AGN 195183 (RAR α) and AGN 194204 (RXR). […] This is a fairly harsh model and as such the modest improvement by tazarotene is quite significant.

[5] = tested on: retinal function and structure; assay: Blue light retinal degeneration model; format: in vivo, Sprague dawley rats; conditions: daily oral doses for five days before 12000 lux blue light, eight hours
Experimental: AGN 194310, AGN 194204, tazarotene and AGN 199852 were evaluated in the blue light retinal degeneration model. Sprague dawley rats were pretreated for five days with daily oral doses of the retinoids. The rats were then exposed to high intensity light, 12000 lux blue fluorescent, for eight hours. Five days post exposure the retinal function was assessed by full flash ERG and structure by outer nuclear layer thickness.

[6] = retina, 1250 ng, read-out: Tazarotene concentration in the retina
[7] = vitreous humor, 1250 ng intravitreal, read-out: Tazarotene concentration in the vitreous humor

## CCOC(=O)c1ccc(C#Cc2ccc3c(c2)C(C)(C)CCS3)nc1 [Tazarotene, Ethyl 6-[(4,4-dimethylthiochroman-6-yl)ethynyl]nicotinate]
[1]
  logP: 4.3
[1]; pH 7.4, value marked measured in Table 3, read-out: log D pH 7.4 (measured)
  logD: 4.3
Solubility of tazarotene; 0.9% saline, saline or isotonic, read-out: solubility in 0.9% saline
  solubility: < 1 µg/mL
Solubility of tazarotene; water, read-out: solubility in water
  solubility: 1 µg/mL (≈ 2.85 µM)
[2]; plasma, 1.1 mg/Day, plasma, Oral 1.1 mg/Day, in 95%
  Cmax: < 0.1 ng/mL
[2]; plasma, 3 mg/Day, plasma, Oral 3.0 mg/Day
  Cmax: < 0.1 ng/mL
[2]; plasma, 6 mg/Day, plasma, Oral 6.0 mg/Day
  Cmax: < 0.1 ng/mL
[2]; in vivo
  highest plasma concentration of tazarotene in phase 3 clinical trials: 6 ng/mL
[2]; over 90% of all patients
  plasma concentration of tazarotene in phase 3 clinical trials: < 1 ng/mL
[2]; plasma, Topical Gel 0.1%, for >90%
  TAZAROTENE Cmax: BLQ for >90%
[3]; at 4 weeks
  safety by gross pathology and limited histopathology: good safety profile
[3]; at 28 days, 10% loaded PLA/PLGA implants, intravitreal
  eyes progressed to traction retinal detachment: 12%
[4]; [6]
  concentration at 2 hr: 859 ± 131 ng/g
  concentration at 24 hr: 93.1 ± 28.9 ng/g
[4]; retina, 1250 ng, read-out: mean t1/2 of elimination from the retina (converted)
  half-life: 7.63 h
[4]; [7]
  concentration at 2 hr: 578 ± 77 ng/g
  concentration at 24 hr: 115 ± 33 ng/g
[4]; vitreous humor, 1250 ng, read-out: mean half-life (t1/2) in vitreous humor (converted)
  half-life: 9.22 h
[4]; in vivo
  mean vitreal clearance (Cl): 0.123 mL/h
  vitreal clearance: 2.95 mL/day
photoreceptors
  protection of photoreceptors (outer nuclear layer): only compound to show efficacy
[5]
  protection of retinal function (ERG) and structure (outer nuclear layer thickness): significantly protect both retinal function and structure
